Consider 2 molecules from patent US20100292137A1, “Antibiotics and Methods For Producing Them” (priority 2006, published 2010).

Where two headings read alike, the source gives them in different places.

Experiment [1] relates to M. tuberculosis. The conditions noted are these: tlyA mutants 315-A, C-202 and C-211; cited from earlier work.
The test system of experiment [2] is M. tuberculosis. Type of experiment: cell-based, Mycobacterium tuberculosis.
Experiment [3] has as its system M. tuberculosis rrl mutant C-401. Type of experiment: cell-based, Mycobacterium tuberculosis.

Take `NCC[C@H](O)C(=O)N[C@@H]1C[C@H](N)[C@@H](O[C@H]2O[C@H](CN)[C@@H](O)[C@H](O)[C@H]2O)[C@H](O)[C@H]1O[C@H]1O[C@H](CO)[C@@H](O)[C@H](N)[C@H]1O` [amikacin]: the susceptibility result in experiment [1] and in experiment [2] was “susceptible” each time.

Take capreomycin: the “effect on growth rate” value in experiment [3] is given as “do not noticeably slow the growth rate”.
